# Laboratory results taken from USRE42930E1, “Aziridinyl-epothilone compounds” (Bristol-Myers Squibb Company, priority 2006, dated 2011).
# Where two headings read alike, the source gives them in different places.
# Assays:
# [1] = system: clonogenic KB cancer cells; experiment: Clonogenic cell survival (colony formation) assay; format: cell-based, human
# Method: Cancer cells were seeded at 3.0E+05 cells in a T75 flask with 10 ml of RPMI1640 media, free of folic acid, and containing 10% fetal bovine serum and 25 mM HEPES. Cells were grown in a 37° C. incubator containing 5% CO2 for 2 days. On day 2, supernatants were removed from the flasks, and the flasks were divided into 2 groups. One group of cells were incubated with 5 ml of media containing […] of folic acid (Sigma) for 30 minutes and the others were grown in 5 ml of media without added folic acid. Cells were then treated with 20 nM of epothilone, epothilone analog, conjugated epothilone, or conjugated epothilone analog for one hour. At the end of the incubation, the drugs were removed from the flasks and the cells were washed with PBS buffer 3×. After washing, 5 ml of complete media were added into each flask, and the cell was grown in the CO2 incubator for 23 hours. The next morning, the cells were removed from the flasks by trypsinization, cell numbers were determined, and then cells were plated in a 6 well plates. Ten days after plating, colonies were stained with crystal violet and counted. The surviving fractions were determined.
# This is important because it is the aziridine epothilone analog, e.g., Compound G, that mediates the antitumor effects upon release from folic acid. […] The concentration needed to kill 90% of clonogenic KB cancer cells (IC90) was determined after a drug exposure duration of 17 hours.
# A2780Tax = format: cell-based, human
# Method: (§1) In vitro cytotoxicity was assessed in tumor cells using a tetrazolium-based colorimetric assay which takes advantage of the metabolic conversion of MTS (3-(4,5-dimethylthiazol-2-yl)-5-(3-carboxymethoxyphenyl)-2-(4-sulphenyl)-2H-tetrazolium, inner salt) to a reduced form that absorbs light at 492 nm. Cells were seeded 24 hr prior to addition of the epothilone, epothilone analog, conjugated epothilone, or conjugated epothilone analog. Following a 72 hour incubation at 37° C. with serially diluted compound, MTS, in combination with the electron coupling agent phenazine methosulfate, was added to the cells. The incubation was continued for 3 hours, then the absorbency of the medium at 492 nm was measured with a spectrophotometer to obtain the number of surviving cells relative to control populations. The results are expressed as median cytotoxic concentrations (IC50 values).
# (§2) Other epothilone analogs, e.g., aziridinyl epothilones, are known in the art (see, e.g., U.S. Pat. No. 6,399,638; Regueiro-Ren, A, et al. (2001) Org. Letters. 3:2693-96) and show potent antitumor cytotoxicity. For example, an MTS assay that compared the relative cytotoxic potency of a number of epothilone analogs against a pair of taxane-resistant cancer cell lines (HCTVM46 and […]) was conducted (see Table 1). HCTVM46 is a human colon carcinoma cell line derived from the sensitive HCT116 parent line, and is resistant to taxanes due to overexpression of the 170 kD p-glyprotein drug efflux transporter. A2780Tax is a human ovarian carcinoma cell line derived from the parent A2780 line, and is resistant to paclitaxel as a result of a mutation in the tubulin amino acid sequence that impairs the ability of paclitaxel to bind.
# [2] = system: HCT116 colon carcinoma cell line; experiment: cells; format: cell-based, human
# Method: as §1, §2
# (§3) As is shown in Table 1, various aziridinyl epothilone analogs (Compounds CC-EE) show potent antitumor activity against both the HCT116 colon and A2780 ovarian carcinoma cell lines, compared to other known antitumor agents, e.g., paclitaxel, compound AA, and epothilone B.
# HCT116VM46 = experiment: In vitro MTS cytotoxicity assay, taxane-resistant HCT116VM46 (R/S ratio); format: cell-based, human; conditions: R/S ratio = HCT116VM46 IC50/HCT116 IC50
# Method: as §1, §2
# [3] = system: A2780 ovarian carcinoma cell line; experiment: In vitro MTS proliferation/cytotoxicity assay, A2780; format: cell-based, human
# Method: as §1, §2, §3
# [4] = system: KB nasopharyngeal epidermoid carcinoma xenografts; experiment: In vivo antitumor efficacy, KB FRα(+) xenografts in nude mice; conditions: KB model, FIG. 4
# Source text: (§4) Female CD2F1 mice (Harlan Sprague-Dawley Inc., 20-22 g) maintained in a controlled environment and provided with water and food ad libitum were used in these studies. The murine FRα(−) Madison 109 (M109) lung carcinoma (Marks et al., 1977) and the FR-expressing (FRα(+)) 98M109 variant were used to evaluate the efficacy of the epothilone, epothilone analog (e.g., epothilone derivative), folate-epothilone conjugate, or folate-epothilone analog conjugate. In addition, the human head and neck epidermoid carcinoma KB grown in nude mice was also used for this purpose. […]
# (§5) Tumor response was determined by measurement of tumors with a caliper twice a week, until the tumors reached a predetermined “target” size of 1 gm. […]
# (§6) Antitumor activity was evaluated at the maximum tolerated dose (MTD) which is defined as the dose level immediately […] which excessive toxicity (i.e. more than one death) occurred. When death occurred, the day of death was recorded. […]
# (§7) To estimate tumor cell kill, the tumor volume doubling time (TVDT) was first calculated with the formula: TVDT=Median time (days) for control tumors to reach target size−Median time (days) for control tumors to reach half the target size And, Log cell kill=T-C÷(3.32×TVDT) Statistical evaluations of data were performed using Gehan's generalized Wilcoxon test.
# folate receptor (FR) = target: T1, folate receptor (FR) (Homo sapiens, UniProt P15328); experiment: Displacement of radiolabeled folic acid from FR expressed on KB tumor cells; format: binding; conditions: compared to folic acid (RA = 1.0)
# T1 construct: FR expressed on KB tumor cells grown to confluence; endogenous in cells; host or cells: KB tumor cells
# Method: The binding of these folate conjugates of Compound AA to FR was determined in an assay that measures displacement of radiolabeled folic acid from FR expressed on KB tumor cells grown to confluence.
# FRα(+) 98M109 tumors = experiment: In vivo antitumor efficacy, FRα(+) 98M109 tumors with folate analog competition; set-up: species or system mice; conditions: folate analog at 20-fold excess of the dose of compound J; FIG. 6
# Source text: as §4, §5, §6, §7
# [5] = system: FRα(−) M109 murine lung carcinoma; experiment: In vivo antitumor efficacy, FRα(−) M109 parent tumor model; set-up: species or system mice; conditions: bolus IV; FIG. 5
# Source text: as §4, §5, §6, §7
# [6] = Homo sapiens, A2780, MTS assay, mean IC50 ± SD from four separate experiments, read-out: A2780 IC5
# [7] = Homo sapiens, HCT-116, read-out: HCT116 IC50 (nM)
# [8] = Homo sapiens, A2780, read-out: A2780 IC5 (nM)
# T1 sequence (P15328 25-234): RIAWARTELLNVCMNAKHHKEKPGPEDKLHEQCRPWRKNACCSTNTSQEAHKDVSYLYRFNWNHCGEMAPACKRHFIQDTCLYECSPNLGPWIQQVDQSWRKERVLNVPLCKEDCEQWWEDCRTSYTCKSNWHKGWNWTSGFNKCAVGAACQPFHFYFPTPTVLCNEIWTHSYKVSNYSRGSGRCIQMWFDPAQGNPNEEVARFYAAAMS
compound,measurement,setting,value
"C/C(=C\c1csc(C)n1)[C@@H]1C[C@H]2[C@@H](CCCC(C)[C@H](O)[C@@H](C)C(=O)C(C)(C)[C@@H](O)CC(=O)O1)N2CCO (relative stereo) [Compound G, [1S-[1R*,3R*(E),7R*,10S*,11R*,12R*,16S*]]-7,11-Dihydroxy-17-[2-hydroxyethyl]-8,8,10,12-tetramethyl-3-[1-methyl-2-(2-methyl-4-thiazolyl)ethenyl]-4-oxa-17-azabicyclo[14.1.0]heptadecane-5,9-dione]",fold more potent than compound AA,"[1]; IC90, KB cells, 17 hours",~4 fold
same,fold more potent than compound CC,"[1]; IC90, KB cells, 17 hours",~2 fold
same,fold more potent than ixabepilone,"[1]; IC90, KB cells, 17 hours",~6 fold
same,concentration needed to kill 90% of clonogenic KB cancer cells (IC90),"[1]; drug exposure duration of 17 hours, FIG. 3",4.3 nM
C/C(=C\c1csc(CN)n1)C1C[C@@H]2O[C@]2(C)CCCC(C)[C@H](O)[C@@H](C)C(=O)C(C)(C)[C@@H](O)CC(=O)O1 (some centres unmarked) [Compound AA],R/S Ratio (A2780),A2780Tax,3
same,IC50,"[2]; Homo sapiens, HCT-116, MTS assay, mean IC50 ± SD from four separate experiments, read-out: HCT116 IC50",1.2 ± 0.3 nM
same,R/S Ratio (HCT116),HCT116VM46,14.8
same,IC50,[3]; [6],1.1 ± 0.4 nM
C/C(=C\c1csc(C)n1)C1C[C@@H]2N[C@@H]2CCCC(C)[C@H](O)[C@@H](C)C(=O)C(C)(C)[C@@H](O)CC(=O)O1 (some centres unmarked) [Compound CC],R/S Ratio (A2780),A2780Tax,4.7
same,IC50,[2]; [7],4.2 ± 2.8 nM
same,R/S Ratio (HCT116),HCT116VM46,3.1
same,IC50,[3]; [8],3.4 ± 1.5 nM
C/C(=C\c1csc(C)n1)[C@@H]1C[C@H]2[C@@H](CCC[C@H](C)[C@H](O)[C@@H](C)C(=O)C(C)(C)[C@@H](O)CC(=O)O1)N2CCOC(=O)OCCSSC[C@H](NC(=O)[C@H](CC(=O)O)NC(=O)[C@H](CCCNC(=N)N)NC(=O)[C@H](CC(=O)O)NC(=O)CC[C@H](NC(=O)c1ccc(NCc2cnc3nc(N)[nH]c(=O)c3n2)cc1)C(=O)O)C(=O)O (some centres unmarked) [Compound J],toxicity at two lower dose levels,[4]; dose levels below MTD,minimal toxicity
same,antitumor effects compared at the MTDs,[4]; versus ixabepilone,superior antitumor effects than ixabepilone
same,relative affinity (RA) for folate receptor,folate receptor (FR),0.77
same,effect of co-administration of a folate analog on antitumor effects,FRα(+) 98M109 tumors,protect FRα(+) 98M109 tumors from the antitumor effects of compound J
same,antitumor activity in FRα(−) M109 parent tumor model,[5],poor activity at all dose levels tested
C/C(=C\c1csc(C)n1)C1C[C@H]2[C@@H](CCCC(C)[C@H](O)[C@@H](C)C(=O)C(C)(C)[C@@H](O)CC(=O)O1)N2C (some centres unmarked) [DD],R/S Ratio (A2780),A2780Tax,4.1
same,IC50,[2]; [7],0.37 ± 0.13 nM
same,R/S Ratio (HCT116),HCT116VM46,0.6
same,IC50,[3]; [8],0.25 ± 0.06 nM
C/C(=C\c1csc(C)n1)[C@@H]1C[C@@H]2O[C@]2(C)CCC[C@H](C)[C@H](O)[C@@H](C)C(=O)C(C)(C)[C@@H](O)CC(=O)O1 [Epothilone B],R/S Ratio (A2780),A2780Tax,2.5
same,IC50,"[2]; MTS assay, mean IC50 ± SD from four separate experiments, read-out: HCT116 IC50",0.4 ± 0.13 nM
same,R/S Ratio (HCT116),HCT116VM46,0.5
same,IC50,"[3]; MTS assay, mean IC50 ± SD from four separate experiments, read-out: A2780 IC5",0.23 ± 0.09 nM
Nc1nc2ncc(CNc3ccc(C(=O)N[C@@H](CCC(=O)O)C(=O)O)cc3)nc2c(=O)[nH]1 [folic acid],relative affinity (RA) for folate receptor,folate receptor (FR),1.0
C/C(=C\c1csc(C)n1)[C@@H]1C[C@@H]2O[C@]2(C)CCC[C@H](C)[C@H](O)[C@@H](C)C(=O)C(C)(C)[C@@H](O)CC(=O)N1 [ixabepilone],antitumor activity in FRα(−) M109 parent tumor model,[5],active at its MTD
CC(=O)O[C@H]1C(=O)[C@@]2(C)[C@H]([C@H](OC(=O)c3ccccc3)[C@]3(O)C[C@H](OC(=O)[C@H](O)[C@@H](NC(=O)c4ccccc4)c4ccccc4)C(C)=C1C3(C)C)[C@]1(OC(C)=O)CO[C@@H]1C[C@@H]2O [paclitaxel],R/S Ratio (HCT116),HCT116VM46,150
same,IC50,[3]; [6],3.1 ± 1 nM
